In test [1] the test system is PC-3 cells. The test can be described thus: MTT antiproliferative assay, PC-3 cells. Format: cell-based, human. The settings on record: Homo sapiens, PC-3, exposure for 48 h. The procedure, abridged: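 Cells were grown in RPMI-1640 with 10% FBS and seeded for 24 h before treatment. They were exposed to graded compound concentrations for 48 h, then MTT was added for 4 h at 37 °C. Formazan was dissolved in DMSO and absorbance read at 490 nm to derive IC50 values.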
(In general: Formazan colour is commonly taken as a measure of viable cells.)

Test [2] has as its system SGC-7901 cells. The test can be described thus: Annexin V-FITC/PI cell apoptosis assay, SGC-7901 cells. Format: cell-based. The settings on record: SGC-7901, high dose, 48 h. On the procedure: Bcl-2 regulated by the Hippo/YAP plays an important role in cell apoptosis. Therefore, we next examined the effects of compound 9i on cell apoptosis. MGC-803 and SGC-7901 cells were treated with compound 9i for 48 h, as shown in Figures 5(A,B), the nuclei of gastric cancer are dense and fragmented, and cells became round, small, and was induced to die. To determine the influence of compound 9i on cell death, MGC-803 and SGC-7901 cells treated with compound 9i were stained with Annexin V-FITC/PI. As shown in Figure 5(C), the high dose compound 9i treatment group induced over 60% of cell apoptosis at 48 h. As shown in Figure 5(D), some other apoptosis-related proteins were also regulated by compound 9i in MGC-803 and SGC-7901 cells. Compound 9i caused dose-dependent decreases of anti-apoptosis proteins c-IAP and Mcl-1. […] Mitochondrial membrane potential depolarisation and translocation from the mitochondria to the cytoplasm of cytochrome c are two key steps involved in the intrinsic apoptosis pathway. As shown in Figures 5(F–H), compound 9i depolarised mitochondrial membrane potential and induced the translocation of cytochrome c.
Figure 5. Compound 9i induced apoptosis in MGC-803 and SGC-7901 cells. Density ratios relative to β-Actin were shown on the top of each Western blotting band. […] The cell line of each row appears only in tiny plot titles that cannot be read with certainty. […]

Test [3] has as its system MGC-803 and SGC-7901 cells. The test can be described thus: Colony formation assay in gastric cancer cells. Format: cell-based. The settings on record: 150 nM, 7 days. From the text:
(§1) Because of the potent inhibitory activity on cell viability of compound 9i, we next explored the effects of compound 9i on cell proliferation in MGC-803 and SGC-7901 cells.
(§2) Figure 6. Gastric cancer cell proliferation inhibition inhibited by 9i. Density ratios relative to β-Actin were shown on the top of each Western blotting band. (A,B) Cell growth curves of in MGC-803 and SGC-7901 cells after the treatment with indicated concentrations of 9i for different hours; (C,D). Gastric cancer cell colony formation, cells were treated for 7 days; (E) Cell cycle distribution of MGC-803 and SGC-7901 after the treatment with indicated concentrations of 9i for 24 h; (F,G) Cell cycle related proteins in gastric cancer cells after the treatment with indicated concentrations of 9i for 24 h.
In this work, some other assays including colony formation assay, cell apoptosis assay and immunostaining assay were referred to our previous work[35]^,[36].

Test [4] relates to MGC-803 and SGC-7901 cells. Description: Cell cycle distribution in gastric cancer cells. Format: cell-based. The settings on record: 24 h.
Source text: as §1, §2

The record followed here is article PMC8386742, “Discovery of N-aryl sulphonamide-quinazoline derivatives as anti-gastric cancer agents in vitro and in vivo via activating the Hippo signalling pathway” (Journal of Enzyme Inhibition and Medicinal Chemistry, 2021).

SMILES strings stand for the structures.

The IC50 is the concentration that inhibits the measured activity by half. A lower IC50 goes with greater potency in that assay.

`COc1ccc(S(=O)(=O)N(Cc2nc(C)c3ccccc3n2)c2cc(OC)c(OC)c(OC)c2)cc1` [Compound 9i, 4-Methoxy-N-((4-methylquinazolin-2-yl)methyl)-N-(3,4,5-trimethoxyphenyl) benzene-sulfonamide] yielded an IC50 in test [1] of 1040 ± 130 nM. In test [2], the cell apoptosis result is given as “over 60%”. In addition, the colony formation entry in test [3] is “significantly decreased”. In addition, in test [4], the cell cycle arrest result is “remarkable and dose-dependent G2/M arrest”.
